These results are taken from article PMC5433426, “Identification of small molecule inhibitors of the Lin28-mediated blockage of pre-let-7g processing” (Organic & Biomolecular Chemistry, 2016).

Like-named read-outs stand apart in the source and are kept apart here.

This test concerns the target T1, Lin28 (Homo sapiens, UniProt Q9H9Z2).
T1 construct: gene LIN28A; recombinant, N-terminal GST tag; multimeric on pre-let-7
T1 sequence (Q9H9Z2 1-209): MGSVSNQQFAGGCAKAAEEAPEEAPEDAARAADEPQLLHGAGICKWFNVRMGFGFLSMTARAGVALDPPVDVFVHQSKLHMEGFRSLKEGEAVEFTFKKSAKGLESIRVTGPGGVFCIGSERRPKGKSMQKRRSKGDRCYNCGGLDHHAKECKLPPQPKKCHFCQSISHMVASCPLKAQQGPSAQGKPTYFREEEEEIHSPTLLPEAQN
Kind of test: fluorescence polarization displacement of fluorescein-labelled tpre-let-7g RNA. The format is binding. In general terms: Fluorescence polarisation rises when a labelled molecule tumbles more slowly, as on binding a larger partner.

Take `Nc1c(S(=O)(=O)O)cc(Nc2ccc(S(=O)(=O)O)c(Nc3nc(Cl)nc(Cl)n3)c2)c2c1C(=O)c1ccccc1C2=O` [11b, Reactive Blue 4]: the IC50 (read-out: IC50) was determined as 10.75 ± 0.1 µM.

With `O=C(O)C1=CC(=C(c2ccc(O)c(C(=O)O)c2)c2ccc(O)c(C(=O)O)c2)C=CC1=O` [compound 4, Aurintricarboxylic acid], the IC50 (read-out: IC50) turned out to be 1.18 ± 0.23 µM. Same read-out and setting: to `O=C(O)c1ccc2nc3c4c(O)ccc(O)c4c(=O)c(Cl)c-3oc2c1` [compound 14, SB/ZW/0065] belongs 4.71 ± 0.16 µM. `NC(Cc1cc(O)c(O)cc1O)C(=O)O` (racemic) [compound 10, 6-hydroxy-DL-DOPA] showed an IC50 of 7.05 ± 0.13 µM.

By IC50 is commonly meant the concentration that gives 50% inhibition.
